“And” between values parts separate entries of the source, which are not always exact repeats. Equal values may be shown once. Inconclusive results and toxic doses are left out. Rule for the calls: active = survival T/C of 150% or more; inactive = T/C below 125% in these data.
Tested on: CD2F1 mice, L1210 leukemia ip, survival T/C
Assay: NCI In Vivo Anticancer Drug Screen. Data for tumor model L1210 Leukemia (intraperitoneal) in CD2F1 (CDF1) mice
Settings: higher = longer survival
In short: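 Ratio T/C, where T is the treated-group value and C the vehicle-dosed control value, from mice implanted with a transplantable tumor.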

[1] = endpoint: mean survival time, dose: 100.0 mg/kg/injection, schedule: Q04DX003 (ip), vehicle: saline with Tween-80
[2] = endpoint: mean survival time, dose: 200.0 mg/kg/injection, schedule: Q04DX003 (ip), vehicle: saline with Tween-80
[3] = endpoint: mean survival time, dose: 400.0 mg/kg/injection, schedule: Q04DX003 (ip), vehicle: saline with Tween-80
[4] = endpoint: mean survival time, dose: 25.0 mg/kg/injection, schedule: Q01DX009 (ip), vehicle: saline
[5] = endpoint: mean survival time, dose: 50.0 mg/kg/injection, schedule: Q01DX009 (ip), vehicle: saline
[6] = endpoint: mean survival time, dose: 100.0 mg/kg/injection, schedule: Q01DX009 (ip), vehicle: saline
[7] = endpoint: mean survival time, dose: 50.0 mg/kg/injection, schedule: Q01DX009 (ip), vehicle: saline with Tween-80
[8] = endpoint: mean survival time, dose: 100.0 mg/kg/injection, schedule: Q01DX009 (ip), vehicle: saline with Tween-80
[9] = endpoint: mean survival time, dose: 200.0 mg/kg/injection, schedule: Q01DX009 (ip), vehicle: saline with Tween-80
[10] = endpoint: mean survival time, dose: 400.0 mg/kg/injection, schedule: Q01DX009 (ip), vehicle: saline with Tween-80
[11] = endpoint: mean survival time, dose: 100.0 mg/kg/injection, schedule: Q01DX001 (ip), vehicle: saline sonified
[12] = endpoint: mean survival time, dose: 200.0 mg/kg/injection, schedule: Q01DX001 (ip), vehicle: saline sonified
[13] = endpoint: mean survival time, dose: 100.0 mg/kg/injection, schedule: Q01DX001 (ip), vehicle: saline with Tween-80
[14] = endpoint: mean survival time, dose: 200.0 mg/kg/injection, schedule: Q01DX001 (ip), vehicle: saline with Tween-80
[15] = endpoint: mean survival time, dose: 400.0 mg/kg/injection, schedule: Q01DX001 (ip), vehicle: saline with Tween-80
[16] = endpoint: mean survival time, dose: 12.5 mg/kg/injection, schedule: Q01DX005 (ip), vehicle: water
[17] = endpoint: mean survival time, dose: 25.0 mg/kg/injection, schedule: Q01DX005 (ip), vehicle: water
[18] = endpoint: mean survival time, dose: 50.0 mg/kg/injection, schedule: Q01DX005 (ip), vehicle: water

Measured: T/C

CC(=O)OC1C2(CC3N4C(=O)C5(CO)SSC4(CC31O)C(=O)N5C)OC(C)C(C)(C)C2=O (stereo unspecified)
inactive: endpoint: mean survival time, dose: 0.15 mg/kg/injection, schedule: Q01DX009 (ip), vehicle: saline 101 % of control | endpoint: mean survival time, dose: 0.16 mg/kg/injection, schedule: Q01DX009 (ip), vehicle: saline with Tween-80 97 % of control | endpoint: mean survival time, dose: 0.31 mg/kg/injection, schedule: Q01DX009 (ip), vehicle: saline with Tween-80 101 % of control | endpoint: mean survival time, dose: 0.31 mg/kg/injection, schedule: Q01DX009 (ip), vehicle: saline 100 % of control | endpoint: mean survival time, dose: 0.62 mg/kg/injection, schedule: Q01DX009 (ip), vehicle: saline 100 % of control | endpoint: mean survival time, dose: 0.63 mg/kg/injection, schedule: Q01DX009 (ip), vehicle: saline with Tween-80 101 % of control | endpoint: mean survival time, dose: 1.25 mg/kg/injection, schedule: Q01DX009 (ip), vehicle: saline 120 % of control and 98 % of control and 100 % of control | endpoint: mean survival time, dose: 2.5 mg/kg/injection, schedule: Q01DX009 (ip), vehicle: saline with Tween-80 98 % of control | endpoint: mean survival time, dose: 2.5 mg/kg/injection, schedule: Q01DX009 (ip), vehicle: saline 107 % of control

O=P(Oc1ccccc1)(Oc1ccccc1)C(Nc1ccccc1)c1ccncc1 (stereo unspecified)
inactive: [1] 93 % of control | [2] 100 % of control | [3] 102 % of control

CC(=O)NC(CSC(c1ccccc1)(c1ccccc1)c1ccccc1)C(=O)O (stereo unspecified)
inactive: [4] 101 % of control | [5] 100 % of control | [6] 101 % of control

O=C1C(Br)CCC1C(O)(C(F)(F)F)C(F)(F)F (stereo unspecified)
inactive: [7] 98 % of control | [8] 102 % of control | [1] 92 % of control | [9] 104 % of control | [2] 91 % of control

O=Cc1ccc(O)c(O)c1
inactive: endpoint: mean survival time, dose: 12.5 mg/kg/injection, schedule: Q01DX009 (ip), vehicle: saline 93 % of control | endpoint: mean survival time, dose: 25.0 mg/kg/injection, schedule: Q01DX009 (ip), vehicle: saline with Tween-80 106 % of control | [4] 98 % of control | [7] 106 % of control | [5] 98 % of control | [8] 114 % of control and 102 % of control | [6] 107 % of control | [9] 109 % of control | endpoint: mean survival time, dose: 200.0 mg/kg/injection, schedule: Q01DX009 (ip), vehicle: saline 116 % of control | [10] 117 % of control

C=CC1(C)CCN=C(CCN2CCCCC2)O1 (stereo unspecified)
inactive: [11] 97 % of control | [12] 100 % of control

OC1CCC2CCC1C2 (stereo unspecified)
inactive: [13] 102 % of control | [14] 104 % of control | [15] 101 % of control

c1ccc(C2COCC2c2ccccc2)cc1 (stereo unspecified)
inactive: [13] 86 % of control | [14] 92 % of control | [15] 93 % of control

OCC1OC(OC2C(CO)OC(Sc3ccccc3)C(O)C2O)C(O)C(O)C1O (stereo unspecified)
inactive: [1] 97 % of control | endpoint: mean survival time, dose: 100.0 mg/kg/injection, schedule: Q04DX003 (ip), vehicle: saline 103 % of control | [2] 95 % of control | endpoint: mean survival time, dose: 200.0 mg/kg/injection, schedule: Q04DX003 (ip), vehicle: saline 103 % of control | [3] 97 % of control | endpoint: mean survival time, dose: 400.0 mg/kg/injection, schedule: Q04DX003 (ip), vehicle: saline 95 % of control

[N-]=[N+]=NCc1cn(C2CC(O)C(CO)O2)c(=O)[nH]c1=O (stereo unspecified)
inactive: endpoint: mean survival time, dose: 6.25 mg/kg/injection, schedule: Q01DX005 (ip), vehicle: water 91 % of control | [16] 111 % of control | [17] 103 % of control | [18] 100 % of control

Cc1ccc(S(=O)(=O)/C=C(\C=C/c2ccccc2)c2ccccc2)cc1
inactive: [7] 103 % of control | [8] 103 % of control | [9] 106 % of control

CN(CCO)c1c(Cl)c(=O)oc2ccc(Cl)cc12
inactive: [8] 97 % of control | [9] 101 % of control | [10] 106 % of control

C(=N\Nc1nc2ccccc2s1)/c1ccnc2ccccc12
inactive: endpoint: mean survival time, dose: 100.0 mg/kg/injection, schedule: Q04DX003 (ip), vehicle: Klucel (hydroxypropylcellulose) (HPC) 94 % of control | endpoint: mean survival time, dose: 200.0 mg/kg/injection, schedule: Q04DX003 (ip), vehicle: Klucel (hydroxypropylcellulose) (HPC) 92 % of control | endpoint: mean survival time, dose: 400.0 mg/kg/injection, schedule: Q04DX003 (ip), vehicle: Klucel (hydroxypropylcellulose) (HPC) 94 % of control

C1CSC(CC2SCCCS2)SC1
inactive: endpoint: mean survival time, dose: 50.0 mg/kg/injection, schedule: Q01DX001 (ip), vehicle: saline with Tween-80 97 % of control | [13] 94 % of control | [14] 96 % of control

Oc1cc(O)c(Cl)cc1Cl
inactive: endpoint: mean survival time, dose: 25.0 mg/kg/injection, schedule: Q01DX001 (ip), vehicle: saline 103 % of control | endpoint: mean survival time, dose: 50.0 mg/kg/injection, schedule: Q01DX001 (ip), vehicle: saline 95 % of control | endpoint: mean survival time, dose: 100.0 mg/kg/injection, schedule: Q01DX001 (ip), vehicle: saline 95 % of control and 104 % of control

O=C(NCc1ccccc1)c1ccccc1/C(=N/O)c1ccccc1
inactive: [11] 92 % of control | [12] 94 % of control | endpoint: mean survival time, dose: 400.0 mg/kg/injection, schedule: Q01DX001 (ip), vehicle: saline sonified 88 % of control

Brc1c(NC2=NCCN2)ccc2nccnc12
inactive: endpoint: median survival time, dose: 1.56 mg/kg/injection, schedule: Q01DX009 (ip), vehicle: saline 102 % of control | endpoint: median survival time, dose: 3.12 mg/kg/injection, schedule: Q01DX009 (ip), vehicle: saline 96 % of control and 111 % of control | endpoint: median survival time, dose: 6.25 mg/kg/injection, schedule: Q01DX009 (ip), vehicle: saline 115 % of control and 119 % of control and 109 % of control | endpoint: median survival time, dose: 100.0 mg/kg/injection, schedule: Q01DX009 (ip), vehicle: saline 118 % of control

CC(C)(C)C1C=Nn2c(=O)n(-c3ccccc3)c(=O)n21 (stereo unspecified)
inactive: endpoint: mean survival time, dose: 12.5 mg/kg/injection, schedule: Q01DX009 (ip), vehicle: other 100 % of control | endpoint: mean survival time, dose: 25.0 mg/kg/injection, schedule: Q01DX009 (ip), vehicle: other 94 % of control | endpoint: mean survival time, dose: 50.0 mg/kg/injection, schedule: Q01DX009 (ip), vehicle: other 101 % of control | endpoint: mean survival time, dose: 100.0 mg/kg/injection, schedule: Q01DX009 (ip), vehicle: other 100 % of control | endpoint: mean survival time, dose: 200.0 mg/kg/injection, schedule: Q01DX009 (ip), vehicle: other 99 % of control

CCOc1nc(N)nc2c1ncn2C1CC(O)C(CO)O1 (stereo unspecified)
inactive: [16] 95 % of control | [17] 98 % of control | [18] 102 % of control | endpoint: mean survival time, dose: 100.0 mg/kg/injection, schedule: Q01DX005 (ip), vehicle: water 109 % of control | endpoint: mean survival time, dose: 200.0 mg/kg/injection, schedule: Q01DX005 (ip), vehicle: water 98 % of control

CC(C)(C)CC(C)(C)c1ccc(Oc2ccc([N+](=O)[O-])cc2S(=O)(=O)O)cc1
inactive: endpoint: mean survival time, dose: 6.25 mg/kg/injection, schedule: Q04DX002 (ip), vehicle: saline with Tween-80 96 % of control | endpoint: mean survival time, dose: 12.5 mg/kg/injection, schedule: Q04DX002 (ip), vehicle: saline with Tween-80 114 % of control | endpoint: mean survival time, dose: 25.0 mg/kg/injection, schedule: Q04DX002 (ip), vehicle: saline with Tween-80 87 % of control and 93 % of control

Cc1ccc(-c2cc(-c3ccccc3)n(-c3ccccc3)n2)cc1
inactive: [1] 101 % of control | [2] 100 % of control | [3] 95 % of control
